Results on 73 compounds are retold here after publication PMC12040169 (PLOS Biology, 2025).

One may read the viability as a read-out of living cells in per cent, often relative to untreated cells.

The nature of the data set: in vitro. The conditions noted are these: human, hela cells, % viability.

With `CCN1C(=O)C2(CC(=O)N(CCCCC(C)C)C2=O)c2cc(C)ccc21` (stereo not shown) [CBK075173], the viability at 28.5 h, 10 µM was 103%. Consider `COCCN1C(=O)C2(CC(=O)N(Cc3ccccc3)C2=O)c2cc(OC)ccc21` (stereo not shown) [CBK075177], for which the viability at 28.5 h, 10 µM stood at 92.5%.

Turning to `COCCN1C(=O)C2(CC(=O)N(CCN3CCCC3=O)C2=O)c2cc(OC)ccc21` (stereo not shown) [CBK075189], the viability at 28.5 h, 10 µM stood at 92.4%.

As to `CCN1C(=O)C2(CC(=O)N(CCc3cccc(OC)c3)C2=O)c2cc(C)ccc21` (stereo not shown) [CBK075195], the viability at 28.5 h, 10 µM came out at 96.7%.

As to `COc1ccc2c(c1)C1(CC(=O)N(CCc3scnc3C)C1=O)C(=O)N2C` (stereo not shown) [CBK075213], the viability at 28.5 h, 10 µM stood at 91.6%.

As for `CCN1C(=O)C2(CC(=O)N(CCc3scnc3C)C2=O)c2cc(C)ccc21` (stereo not shown) [CBK075217], the viability at 28.5 h, 10 µM came to 96.8%.

For the compound `COc1ccc2c(c1)C1(CC(=O)N(Cc3ccccc3)C1=O)C(=O)N2Cc1ccccc1` (stereo not shown) [CBK075228], the viability at 28.5 h, 10 µM is 106%. The value for `CCN1C(=O)C2(CC(=O)N(Cc3ccccc3)C2=O)c2cc(Cl)ccc21` (stereo not shown) [CBK075233] was 99.1%. Regarding `CCN1C(=O)C2(CC(=O)N(CC(=O)OC)C2=O)c2cc(Cl)ccc21` (stereo not shown) [CBK075234], the viability at 28.5 h, 10 µM stood at 93.7%.

In the case of `COc1ccc2c(c1)C1(CC(=O)N(Cc3cccnc3)C1=O)C(=O)N2C` (stereo not shown) [CBK075236], the viability at 28.5 h, 10 µM is 103%. For the compound `COc1ccc2c(c1)C1(CC(=O)N(CCc3scnc3C)C1=O)C(=O)N2Cc1ccccc1` (stereo not shown) [CBK075240], the viability at 28.5 h, 10 µM is 95.7%. The value for `C=CCN1C(=O)CC2(C1=O)C(=O)N(C)c1ccc(Cl)cc12` (stereo not shown) [CBK075242] was 110%; that for `CN1C(=O)C2(CC(=O)N(CC3CCCCC3)C2=O)c2cc(F)ccc21` (stereo not shown) [CBK075257] was 106%; that for `CN1C(=O)C2(CC(=O)N(Cc3ccccc3)C2=O)c2cc(F)ccc21` (stereo not shown) [CBK075268] was 98.6%. With `C=CCN1C(=O)C2(CC(=O)N(Cc3ccccc3)C2=O)c2cc(OC)ccc21` (stereo not shown) [CBK075281], the viability at 28.5 h, 10 µM turned out to be 103%. The value for `C=CCN1C(=O)CC2(C1=O)C(=O)N(CC)c1ccc(F)cc12` (stereo not shown) [CBK075316] was 115%; that for `C=CCN1C(=O)C2(CC(=O)N(CC)C2=O)c2cc(F)ccc21` (stereo not shown) [CBK075318] was 100%. Take `COCCN1C(=O)C2(CC(=O)N(CCCN3C(=O)CCC3=O)C2=O)c2ccccc21` (stereo not shown) [CBK075333]: the viability at 28.5 h, 10 µM came to 117%. In the case of `COCCN1C(=O)C2(CC(=O)N(CC3CCCCC3)C2=O)c2ccccc21` (stereo not shown) [CBK075355] it was 97.8%; in that of `C=CCN1C(=O)CC2(C1=O)C(=O)N(Cc1ccc(S(=O)(=O)N(CC)CC)cc1)c1ccc(Cl)cc12` (stereo not shown) [CBK075412], 98%. The value for `C=CCN1C(=O)CC2(C1=O)C(=O)N(CCCN1C(=O)c3ccccc3C1=O)c1ccc(Cl)cc12` (stereo not shown) [CBK075443] was 92.6%; that for `C=CCN1C(=O)CC2(C1=O)C(=O)N(Cc1csc(-c3ccccc3)n1)c1ccc(Cl)cc12` (stereo not shown) [CBK075445] was 99.6%; that for `COc1ccc(CN2C(=O)CC3(C2=O)C(=O)N(C)c2ccccc23)cc1OC` (stereo not shown) [CBK075450] was 91.8%. As for `CN1C(=O)CC2(C1=O)C(=O)N(CCN1CCCC1=O)c1ccc(F)cc12` (stereo not shown) [CBK075463], the viability at 28.5 h, 10 µM came to 90.4%.

Regarding `COc1cc(OC)nc(CN2C(=O)C3(CC(=O)N(C)C3=O)c3cc(F)ccc32)n1` (stereo not shown) [CBK075475], the viability at 28.5 h, 10 µM was found to be 110%.

With `COc1ccc2c(c1)C1(CC(=O)N(Cc3ccccc3)C1=O)C(=O)N2CCn1cnc2c1c(=O)n(C)c(=O)n2C` (stereo not shown) [CBK075478], the viability at 28.5 h, 10 µM was found to be 93.5%.

Turning to `COCCN1C(=O)C2(CC(=O)N(CCNS(C)(=O)=O)C2=O)c2cc(C)ccc21` (stereo not shown) [CBK075479], the viability at 28.5 h, 10 µM was found to be 98.2%. With `CN1C(=O)CC2(C1=O)C(=O)N(Cc1ccc3ccccc3n1)c1ccc(Cl)cc12` (stereo not shown) [CBK075494], the viability at 28.5 h, 10 µM is 102%. In the case of `Cc1ccc2c(c1)C1(CC(=O)N(C)C1=O)C(=O)N2CCCOc1ccccc1` (stereo not shown) [CBK075496] it was 98.2%. In the case of `COc1ccc2c(c1)C1(CC(=O)N(Cc3ccccc3)C1=O)C(=O)N2CCCN1C(=O)c2ccccc2C1=O` (stereo not shown) [CBK075501] it was 93.4%; in that of `CCN1C(=O)CC2(C1=O)C(=O)N(Cc1nc(OC)cc(OC)n1)c1ccccc12` (stereo not shown) [CBK075510], 75.8%; in that of `CCN1C(=O)CC2(C1=O)C(=O)N(CCCN(C)S(C)(=O)=O)c1ccccc12` (stereo not shown) [CBK075519], 101%. `CCN1C(=O)CC2(C1=O)C(=O)N(CCc1cccs1)c1ccccc12` (stereo not shown) [CBK075521]: the viability at 28.5 h, 10 µM was found to be 91.4%.

Regarding `COc1ccc(OCCCN2C(=O)C3(CC(=O)N(Cc4ccccc4)C3=O)c3cc(OC)ccc32)cc1` (stereo not shown) [CBK075523], the viability at 28.5 h, 10 µM was 106%. In the case of `Cc1ccc2c(c1)C1(CC(=O)N(C)C1=O)C(=O)N2CCOc1cccc2c1OCCO2` (stereo not shown) [CBK075529] it was 99.6%; in that of `CCN1C(=O)CC2(C1=O)C(=O)N(CCc1cccs1)c1ccc(Cl)cc12` (stereo not shown) [CBK075614], 106%.

Consider `O=C1CC2(C(=O)N1Cc1ccccc1)C(=O)N(Cc1csc(-c3ccccc3)n1)c1ccccc12` (stereo not shown) [CBK075673], for which the viability at 28.5 h, 10 µM stood at 112%.

Regarding `C=CCN1C(=O)CC2(C1=O)C(=O)N(Cc1nc(-c3ccc(Cl)cc3)no1)c1ccc(OC)cc12` (stereo not shown) [CBK075692], the viability at 28.5 h, 10 µM was 97.1%. The value for `Cc1ccc(-c2nnc(CN3C(=O)C4(CC(=O)N(Cc5ccccc5)C4=O)c4ccccc43)o2)cc1` (stereo not shown) [CBK075749] was 103%; that for `COCCN1C(=O)CC2(C1=O)C(=O)N(CC(=O)c1ccccc1)c1ccccc12` (stereo not shown) [CBK075875] was 99%.

Turning to `COCCOCN1C(=O)CC2(C1=O)C(=O)N(Cc1ccc(OC(F)(F)F)cc1)c1ccccc12` (stereo not shown) [CBK075942], the viability at 28.5 h, 10 µM came out at 94.2%. The value for `CC(C)N1C(=O)C2(CC(=O)N(CCCN3C(=O)c4ccccc4C3=O)C2=O)c2cc(F)ccc21` (stereo not shown) [CBK075969] was 99%; that for `COc1cccc(CN2C(=O)CC3(C2=O)C(=O)N(CC(=O)c2ccccc2)c2ccccc23)c1` (stereo not shown) [CBK075984] was 88.9%; that for `COc1cc(OC)nc(CN2C(=O)CC3(C2=O)C(=O)N(CC(=O)c2ccccc2)c2ccc(C)cc23)n1` (stereo not shown) [CBK076059] was 96.7%. In the case of `O=C(O)CN1C(=O)CC2(C1=O)C(=O)N(Cc1ccccc1)c1ccccc12` (stereo not shown) [CBK076093] it was 116%; in that of `Cc1nc(CN2C(=O)CC3(C2=O)C(=O)N(CCCCOc2ccccc2)c2ccccc23)cs1` (stereo not shown) [CBK076103], 102%. In the case of `Cc1ccc2c(c1)C1(CC(=O)N(CC(=O)O)C1=O)C(=O)N2C` (stereo not shown) [CBK076104] it was 96.8%; in that of `CN1C(=O)CC2(C1=O)C(=O)N(CC(=O)O)c1ccc(Cl)cc12` (stereo not shown) [CBK076107], 98.8%.

As for `COc1ccc2c(c1)C1(CC(=O)N(C)C1=O)C(=O)N2CCCC(=O)O` (stereo not shown) [CBK076109], the viability at 28.5 h, 10 µM was 77.3%. The value for `COc1ccc2c(c1)C1(CC(=O)N(C)C1=O)C(=O)N2CC(=O)O` (stereo not shown) [CBK076118] was 100%; that for `O=C(O)CN1C(=O)C2(CC(=O)N(Cc3ccccc3)C2=O)c2cc(F)ccc21` (stereo not shown) [CBK076173] was 99.3%; that for `CCN1CCCC1CNC(=O)c1ccc(-c2ccco2)nc1N1CCN(C(=O)c2ccco2)CC1` (stereo not shown) [CBK076206] was 90.4%.

As to `COc1ccc(OCCNC(=O)c2cc(Br)cnc2N2CCOCC2)cc1` [CBK076214], the viability at 28.5 h, 10 µM amounted to 88%. The value for `O=C(NCCc1c[nH]c2ccccc12)c1ccc(-c2ccco2)nc1N1CCN(C(=O)c2ccco2)CC1` [CBK076217] was 95.4%; that for `O=C(NCc1nc2ccccc2[nH]1)c1cc(Br)cnc1NCCOc1ccccc1` [CBK076220] was 104%. The value for `CN1CCN(C(=O)c2cc(Br)cnc2NCCOc2ccccc2)CC1` [CBK076231] was 92%; that for `O=C(NCc1cccnc1)c1cc(Br)cnc1NCCOc1ccccc1` [CBK076265] was 99.2%; that for `O=C(NCc1nc2ccccc2[nH]1)c1cc(Br)cnc1N1CCOCC1` [CBK076278] was 96.7%. For `O=C(NCC1COc2ccccc2O1)c1cc(-c2ccc(Cl)cc2)cnc1N1CCOCC1` (stereo not shown) [CBK076286], the viability at 28.5 h, 10 µM is 94.9%. The value for `CN(C)C(=O)c1cc(Br)cnc1NCc1ccc2c(c1)OCO2` [CBK076293] was 110%.

Consider `COc1ccc(-c2cnc(NCC3CC3)c(C(=O)N(C)CCN(C)C)c2)cc1` [CBK076338], for which the viability at 28.5 h, 10 µM is 90.5%. In the case of `C=C(C)CNC(=O)c1cc(-c2ccc(OC)cc2)cnc1NCC1CC1` [CBK076339] it was 97.7%; in that of `COc1ccc(OCCNC(=O)c2cc(-c3cccnc3)cnc2N2CCOCC2)cc1` [CBK076341], 96.2%. In the case of `CN1CCN(C(=O)c2cc(Br)cnc2NCc2cccnc2)CC1` [CBK076347] it was 87.3%; in that of `Cc1ccc(C(=O)N(C)CCN(C)C)c(NCc2cccnc2)n1` [CBK076348], 91.5%; in that of `O=C(NCc1ccco1)c1cc(-c2ccc(Cl)cc2)cnc1N1CCOCC1` [CBK076352], 87%. The value for `Cc1cc(NC(=O)c2cc(Br)cnc2NCc2cccnc2)n(C)n1` [CBK076358] was 90.7%. Consider `CNC(=O)c1cccc(NC(=O)c2cc(Br)cnc2NCC2CC2)c1` [CBK076380], for which the viability at 28.5 h, 10 µM is 95.5%. In the case of `COc1ccc(OCCNC(=O)c2ccc(C)nc2NCCCn2ccnc2)cc1` [CBK076385] it was 117%; in that of `C=C(C)CNC(=O)c1ccc(C)nc1N1CCOCC1` [CBK076389], 93.5%; in that of `Cc1ccc(C(=O)NCc2cccnc2)c(N2CCOCC2)n1` [CBK076400], 112%. As to `O=C(Nc1ccc(C(F)(F)F)cc1)c1cc(Br)cnc1NCc1cccnc1` [CBK076419], the viability at 28.5 h, 10 µM was 111%.

Turning to `O=C(NCCc1ccccc1)c1cc(Br)cnc1NCCCn1ccnc1` [CBK076421], the viability at 28.5 h, 10 µM was found to be 103%.
